Assays:
Type in all cases: cell-based
MOLM-13 = test: Proliferation inhibition (CellTiter-Glo) in MOLM-13 cells; details: Homo sapiens, 96 h, MOLM-13 AML cells, heterozygous FLT3-ITD, IC50 (4 days)
Procedure, shortened: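 MOLM-13 human AML cells, heterozygous for FLT3-ITD, were grown in RPMI-1640 with 10% heat-inactivated FBS and 1% Pen-Strep. About 10,000 cells in 200 μL were seeded per well of 96-well plates. After 2 hours, compounds from DMSO stocks were dispensed at eight concentrations in duplicate, with 0.2% DMSO as the untreated control. Viability was read as CellTiter-Glo ATP luminescence, and IC50 was obtained from a four-parameter logistic fit.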

K-562 = test: Proliferation inhibition (CellTiter-Glo) in K-562 cells; details: Homo sapiens, K562, 96 h, K-562 CML cells, no FLT3 mutations, IC50 (4 days)
Procedure, shortened: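 The CML line […] (ATCC: CRL-3343) was cultured in RPMI-1640 with 10% heat-inactivated FBS and 1% Pen-Strep at 37° C. Cells were seeded at about 10,000 per 200 μL in 96-well plates, and test compound was dispensed 2 hours later at eight concentrations in duplicate. Viability was measured as ATP luminescence with CellTiter-Glo. Untreated cells (0.2% DMSO) defined 100% proliferation, and IC50 values came from four-parameter logistic fits.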

MV-4-11 = test: Proliferation inhibition (CellTiter-Glo) in MV-4-11 cells; details: Homo sapiens, MV4-11, 96 h, MV-4-11 AML cells, homozygous FLT3-ITD, IC50 (4 days)
Procedure, shortened: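 MV-4-11 human AML cells (homozygous FLT3-ITD) grown in RPMI-1640 with 10% heat-inactivated FBS and 1% Pen-Strep were seeded at about 10,000 cells per 200 μL in 96 well plates. Two hours later, compounds were dispensed at eight concentrations in duplicate. Viability was measured by CellTiter-Glo luminescence, and IC50 values came from four-parameter logistic non-linear regression against untreated cells (0.2% DMSO).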

Row | SMILES | IC50 (MOLM-13) [nM] | IC50 (K-562) [nM] | IC50 (MV-4-11) [nM]
1 | CCc1nc(C(N)=O)c(Nc2cccc(OCCCNC(=O)[C@H](C)N(C)C/C=C/C(=O)N(C)C)c2)nc1NC1CCOCC1 [Compound 140, (S,E)-3-((3-(3-(2-((4-(dimethylamino)-4-oxobut-2-en-1-yl)(methyl)amino)propanamido)propoxy)phenyl)amino)-6-ethyl-5-((tetrahydro-2H-pyran-4-yl)amino)pyrazine-2-carboxamide] | 10 to 100 | > 500 | 10 to 100
2 | CCc1nc(C(N)=O)c(Nc2cccc(CCNC(=O)C3(N(C)C(=O)/C=C/CN(C)C)CCC3)c2)nc1C [Compound 210, (E)-3-((3-(2-(1-(4-(dimethylamino)-N-methylbut-2-enamido)cyclobutane-1-carboxamido)ethyl)phenyl)amino)-6-ethyl-5-methylpyrazine-2-carboxamide] | > 500 | > 500 | 10 to 100
3 | CC#CC(=O)N(C)[C@@H](C)C(=O)NCCCOc1cccc(Nc2nc(NC3CCOCC3)c(CC)nc2C(N)=O)c1 [Compound 114, 3-[3-[3-[[(2S)-2-[but-2-ynoyl(methyl)amino]propanoyl]amino]propoxy]anilino]-6-ethyl-5-(tetrahydropyran-4-ylamino)pyrazine-2-carboxamide] | 10 to 100 | > 500 | 1 to 10
4 | C[C@@H](C(=O)NCCCOc1cccc(Nc2nc(NC3CCOCC3)c(C3CC3)nc2C(N)=O)c1)N(C)C(=O)/C=C/CN(C)C [Compound 133, (S,E)-6-cyclopropyl-3-((3-(3-(2-(4-(dimethylamino)-N-methylbut-2-enamido)propanamido)propoxy)phenyl)amino)-5-((tetrahydro-2H-pyran-4-yl)amino)pyrazine-2-carboxamide] | 1 to 10 | > 500 | < 1
5 | CCc1nc(C(N)=O)c(Nc2cccc(OCCCNC(=O)[C@H](C)N(C)C(=O)/C=C/CN(C)C)c2)nc1N(C)C1CCOCC1 [Compound 116, (S,E)-3-((3-(3-(2-(4-(dimethylamino)-N-methylbut-2-enamido)propanamido)propoxy)phenyl)amino)-6-ethyl-5-(methyl(tetrahydro-2H-pyran-4-yl)amino)pyrazine-2-carboxamide] | < 1 | > 500 | < 1
6 | C=CS(=O)(=O)NCCC#Cc1cccc(Nc2nc(NC3CCOCC3)c(CC)nc2C(N)=O)c1 [Compound 12, 6-ethyl-5-((Tetrahydro-2H-pyran-4-yl)amino)-3-((3-(4-(vinylsulfonamido)but-1-yn-1-yl)phenyl)amino)pyrazine-2-carboxamide] | > 500 | > 500 | 100 to 500
7 | C=CC(=O)NCCC#Cc1cccc(Nc2nc(NC3CCOCC3)c(CC)nc2C(N)=O)c1 [Compound 11, 3-((3-(4-Acrylamidobut-1-yn-1-yl)phenyl)amino)-6-ethyl-5-((tetrahydro-2H-pyran-4-yl)amino)pyrazine-2-carboxamide] | 10 to 100 | > 500 | 10 to 100
8 | CCc1nc(C(N)=O)c(Nc2cc(F)cc(O[C@@H](C)CNC(=O)[C@H](C)N(C)C(=O)/C=C/CN(C)C)c2)nc1N(C)C [Compound 153, 5-(dimethylamino)-3-((3-(((S)-1-((S)-2-((E)-4-(dimethylamino)-N-methylbut-2-enamido)propanamido)propan-2-yl)oxy)-5-fluorophenyl)amino)-6-ethylpyrazine-2-carboxamide] | 10 to 100 | > 500 | 1 to 10
9 | C=CC(=O)N1CCC(C(=O)Nc2cccc(Nc3nc(NC4CCOCC4)c(CC)nc3C(N)=O)c2)C1 (stereo not drawn) [Compound 112, 6-ethyl-3-[3-[(1-prop-2-enoylpyrrolidine-3-carbonyl)amino]anilino]-5-(tetrahydropyran-4-ylamino)pyrazine-2-carboxamide] | 100 to 500 | > 500 | 100 to 500
10 | CC#CC(=O)N(C)[C@@H](C)C(=O)NCCc1cccc(Nc2nc(C)c(CC)nc2C(N)=O)c1 [Compound 206, 3-[3-[2-[[(2S)-2-[but-2-ynoyl(methyl)amino]propanoyl]amino]ethyl]anilino]-6-ethyl-5-methyl-pyrazine-2-carboxamide] | > 500 | > 500 | 10 to 100
11 | C=CC(=O)NCCC(=O)NCCc1cc(Nc2nc(NC3CCOCC3)c(CC)nc2C(N)=O)cc(OC)c1 [Compound 29, 3-((3-(2-(3-Acrylamidopropanamido)ethyl)-5-methoxyphenyl)amino)-6-ethyl-5-((tetrahydro-2H-pyran-4-yl)amino)pyrazine-2-carboxamide] | 10 to 100 | > 500 | 10 to 100
12 | C#CC(=O)NCCC#Cc1cccc(Nc2nc(NC3CCOCC3)c(CC)nc2C(N)=O)c1 [Compound 15, 6-Ethyl-3-((3-(4-propiolamidobut-1-yn-1-yl)phenyl)amino)-5-((tetrahydro-2H-pyran-4-yl)amino)pyrazine-2-carboxamide] | 10 to 100 | > 500 | 10 to 100
13 | CC#CC(=O)NCCCOc1cccc(Nc2nc(NC3CCOCC3)c(CC)nc2C(N)=O)c1 [Compound 8, 3-((3-(3-(But-2-ynamido)propoxy)phenyl)amino)-6-ethyl-5-((tetrahydro-2H-pyran-4-yl)amino)pyrazine-2-carboxamide] | 100 to 500 | > 500 | > 500
14 | C=CC(=O)N1CCC(C(=O)Nc2cccc(Nc3nc(NC4CCOCC4)c(CC)nc3C(N)=O)c2)CC1 [Compound 102, 6-ethyl-3-[3-[(1-prop-2-enoylpiperidine-4-carbonyl)amino]anilino]-5-(tetrahydropyran-4-ylamino)pyrazine-2-carboxamide] | 10 to 100 | > 500 | 10 to 100
15 | Cc1nc(C(N)=O)c(Nc2cccc(OCCCNC(=O)[C@H](C)N(C)C(=O)/C=C/CN(C)C)c2)nc1NC1CCOCC1 [Compound 132, (S,E)-3-((3-(3-(2-(4-(dimethylamino)-N-methylbut-2-enamido)propanamido)propoxy)phenyl)amino)-6-methyl-5-((tetrahydro-2H-pyran-4-yl)amino)pyrazine-2-carboxamide] | 1 to 10 | > 500 | < 1
16 | C=CC(=O)N(C)[C@@H](C)C(=O)NCC#Cc1cc(Nc2nc(NC3CCOCC3)c(CC)nc2C(N)=O)cc(OC)c1 [Compound 107, 6-ethyl-3-[3-methoxy-5-[3-[[(2S)-2-[methyl(prop-2-enoyl)amino]propanoyl]amino]prop-1-ynyl]anilino]-5-(tetrahydropyran-4-ylamino)pyrazine-2-carboxamide] | 1 to 10 | > 500 | 1 to 10
17 | C#CC(=O)NCCCOc1cccc(Nc2nc(NC3CCOCC3)c(CC)nc2C(N)=O)c1 [Compound 7, 6-Ethyl-3-((3-(3-propiolamidopropoxy)phenyl)amino)-5-((tetrahydro-2H-pyran-4-yl)amino)pyrazine-2-carboxamide] | 1 to 10 | 100 to 500 | 10 to 100
18 | CCc1nc(C(N)=O)c(Nc2cccc(OCCCNC(=O)[C@H](C)N(C)C(=O)/C=C/CN(C)C)c2)nc1NC [Compound 119, (S,E)-3-((3-(3-(2-(4-(dimethylamino)-N-methylbut-2-enamido)propanamido)propoxy)phenyl)amino)-6-ethyl-5 (methylamino)pyrazine-2-carboxamide] | 1 to 10 | > 500 | 1 to 10
19 | CC#CC(=O)N(C)CCCC(=O)NCCc1cc(Nc2nc(NC3CCOCC3)c(CC)nc2C(N)=O)cc(OC)c1 [Compound 33, 3-[3-[2-[4-[but-2-ynoyl(methyl)amino]butanoylamino]ethyl]-5-methoxy-anilino]-6-ethyl-5-(tetrahydropyran-4-ylamino)pyrazine-2-carboxamide] | 10 to 100 | > 500 | 10 to 100
20 | C#CC(=O)NCCCCOc1cccc(Nc2nc(NC3CCOCC3)c(CC)nc2C(N)=O)c1 [Compound 5, 6-Ethyl-3-((3-(4-propiolamidobutoxy)phenyl)amino)-5-((tetrahydro-2H-pyran-4-yl)amino)pyrazine-2-carboxamide] | 10 to 100 | > 500 | 10 to 100
21 | CC#CC(=O)N(C)[C@@H](C)C(=O)NCCc1cccc(Nc2nc(C)c(C)nc2C(N)=O)c1 [Compound 212, (S)-5,6-dimethyl-3-((3-(2-(2-(N-methylbut-2-ynamido)propanamido)ethyl)phenyl)amino)pyrazine-2-carboxamide] | > 500 | > 500 | > 500
22 | CCc1nc(C(N)=O)c(Nc2cccc(OCCCNC(=O)[C@H](C)N(C)C(=O)/C=C/CN(C)C)c2)nc1N(C)C [Compound 118, (S,E)-5-(dimethylamino)-3-((3-(3-(2-(4-(dimethylamino)-N-methylbut-2-enamido)propanamido)propoxy)phenyl)amino)-6-ethylpyrazine-2-carboxamide] | 1 to 10 | > 500 | < 1

From patent US20250136558A1, “PYRAZINE COMPOUNDS AS IRREVERSIBLE INHIBITORS OF FLT3” (BIOMEA FUSION, INC., priority 2021, published 2025)
